Source: the NIST ThermoML archive (doi:10.1016/j.jct.2015.08.033)

Test: mn = molality of the nth substance listed, in mol/kg
Conditions: 100 kPa, Liquid; for speed of sound: Frequency=3 MHz, Sing-around technique in a fixed-path interferometer; for mass density: Vibrating tube method

[Ba+2].[O-][Cl+3]([O-])([O-])[O-].[O-][Cl+3]([O-])([O-])[O-] [barium perchlorate] + CC(=O)N(C)C
Conditions	mass density, 298.15 K [kg/m3]	mass density, 303.15 K [kg/m3]	mass density, 308.15 K [kg/m3]	mass density, 313.15 K [kg/m3]	mass density, 318.15 K [kg/m3]	speed of sound, 298.15 K [m/s]	speed of sound, 303.15 K [m/s]	speed of sound, 308.15 K [m/s]	speed of sound, 313.15 K [m/s]	speed of sound, 318.15 K [m/s]
m1 = 0.01314	939.723	935.116	930.504	925.882	921.254	1457.2	1437.5	1417.7	1398.1	1378.6
m1 = 0.02301	942.289	937.692	933.085	928.469	923.849	1458	1438.3	1418.6	1399.1	1379.6
m1 = 0.03274	944.807	940.214	935.612	931.002	926.384	1458.8	1439.2	1419.5	1400	1380.6
m1 = 0.04665	948.382	943.793	939.196	934.591	929.98	1459.9	1440.4	1420.8	1401.4	1382
m1 = 0.06587	953.282	948.701	944.112	939.515	934.912	1461.4	1441.9	1422.5	1403.1	1383.8
m1 = 0.08329	957.7	953.122	948.539	943.99	939.4	1462.7	1443.3	1423.9	1405	1385.8
m1 = 0.1042	963.001	958.419	953.839	949.253	944.664	1464.5	1445	1425.7	1406.5	1387.4
m1 = 0.1312	969.764	965.202	960.631	956.055	951.474	1466.2	1447	1427.8	1408.8	1389.8
m1 = 0.1609	977.195	972.637	968.076	963.509	958.937	1468.4	1449.3	1430.3	1411.3	1392.5
m1 = 0.1965	985.908	981.362	976.808	972.249	967.689	1470.8	1451.9	1432.9	1414.1	1395.4

[Ba+2].[O-][Cl+3]([O-])([O-])[O-].[O-][Cl+3]([O-])([O-])[O-] [barium perchlorate] + CN(C)C=O
Conditions	mass density, 298.15 K [kg/m3]	mass density, 303.15 K [kg/m3]	mass density, 308.15 K [kg/m3]	mass density, 313.15 K [kg/m3]	mass density, 318.15 K [kg/m3]	speed of sound, 298.15 K [m/s]	speed of sound, 303.15 K [m/s]	speed of sound, 308.15 K [m/s]	speed of sound, 313.15 K [m/s]	speed of sound, 318.15 K [m/s]
m1 = 0.01339	947.432	942.667	937.889	933.096	928.287	1458.1	1438.9	1419.6	1400.4	1381.3
m1 = 0.02254	949.821	945.058	940.281	935.489	930.686	1458.7	1439.5	1420.2	1401.1	1381.9
m1 = 0.0331	952.562	947.81	943.03	938.243	933.442	1459.5	1440.2	1420.9	1401.8	1382.7
m1 = 0.04712	956.179	951.422	946.652	941.866	937.07	1459.9	1440.9	1421.7	1402.7	1383.7
m1 = 0.06582	960.992	956.235	951.468	946.686	941.893	1460.9	1441.9	1422.8	1403.8	1384.9
m1 = 0.08395	965.617	960.865	956.099	951.321	946.53	1461.8	1442.8	1423.8	1405	1386.1
m1 = 0.1061	971.226	966.477	961.715	956.94	952.153	1462.8	1444	1425.1	1406.3	1387.5
m1 = 0.1322	977.835	973.089	968.33	963.559	958.776	1464.1	1445.4	1426.6	1407.8	1389.2
m1 = 0.1588	984.508	979.766	975.008	970.24	965.461	1465.4	1446.8	1428	1409.4	1390.8
m1 = 0.1995	994.63	989.888	985.134	980.371	975.596	1467.4	1448.9	1430.3	1411.8	1393.3

O=S(=O)([O-])C(F)(F)F.O=S(=O)([O-])C(F)(F)F.[Ca+2] [calcium trifluoromethanesulfonate] + CC(=O)N(C)C
Conditions	mass density, 298.15 K [kg/m3]	mass density, 303.15 K [kg/m3]	mass density, 308.15 K [kg/m3]	mass density, 313.15 K [kg/m3]	mass density, 318.15 K [kg/m3]	speed of sound, 298.15 K [m/s]	speed of sound, 303.15 K [m/s]	speed of sound, 308.15 K [m/s]	speed of sound, 313.15 K [m/s]	speed of sound, 318.15 K [m/s]
m1 = 0.02187	940.927	936.332	931.736	927.121	922.5	1457	1437.3	1417.6	1398	1378.6
m1 = 0.03271	943.201	938.61	934.019	929.41	924.794	1457.4	1437.8	1418.2	1398.7	1379.3
m1 = 0.04637	946.038	941.451	936.856	932.246	927.636	1458	1438.5	1419	1399.4	1380
m1 = 0.06551	949.951	945.373	940.788	936.196	931.596	1458.5	1439	1419.5	1400.2	1380.9
m1 = 0.08271	953.447	948.878	944.3	939.716	935.124	1459	1439.6	1420.2	1400.9	1381.7
m1 = 0.1052	957.976	953.415	948.847	944.27	939.688	1459.6	1440.3	1421	1401.8	1382.7
m1 = 0.1305	963.026	958.471	953.91	949.342	944.771	1460.3	1441	1421.8	1402.7	1383.7
m1 = 0.1577	968.401	963.856	959.304	954.745	950.183	1460.9	1441.8	1422.7	1403.7	1384.8
m1 = 0.1977	976.212	971.679	967.14	962.594	958.045	1461.8	1442.8	1423.9	1405	1386.2
